pKi: −log10 of the molar value.
Experiments:
[1] = target: T1, Human recombinant MMP-2 (Homo sapiens, UniProt P08253); test: In vitro MMP inhibition analysis (fluorogenic peptide substrate cleavage), Ki; type: biochemical
T1 construct: made in house; host or cells: MMP-2-transfected p2AHT2 cells
T1 sequence (P08253 110-660): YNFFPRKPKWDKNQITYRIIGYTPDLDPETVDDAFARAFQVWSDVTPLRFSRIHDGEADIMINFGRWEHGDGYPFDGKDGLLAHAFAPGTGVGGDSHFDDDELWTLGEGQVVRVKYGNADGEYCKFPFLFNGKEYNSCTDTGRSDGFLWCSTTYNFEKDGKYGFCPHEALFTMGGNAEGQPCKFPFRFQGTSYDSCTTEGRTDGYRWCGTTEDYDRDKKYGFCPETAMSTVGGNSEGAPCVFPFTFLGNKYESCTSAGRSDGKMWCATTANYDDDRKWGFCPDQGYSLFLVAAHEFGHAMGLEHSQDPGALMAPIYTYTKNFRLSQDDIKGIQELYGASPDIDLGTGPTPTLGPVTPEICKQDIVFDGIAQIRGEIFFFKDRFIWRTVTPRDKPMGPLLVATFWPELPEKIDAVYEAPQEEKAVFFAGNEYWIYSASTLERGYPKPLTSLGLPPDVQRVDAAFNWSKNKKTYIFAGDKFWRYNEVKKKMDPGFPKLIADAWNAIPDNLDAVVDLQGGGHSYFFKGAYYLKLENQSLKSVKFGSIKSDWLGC
Protocol: (§1) Several compounds and salts were analyzed in an in vitro assay to determine their ability to inhibit the MMP cleavage of peptide substrates. Inhibition constant (Ki) were calculated from the assayed compound-MMP interactions.
(§2) Human recombinant MMP-1, MMP-2, MMP-9, MMP-13, and MMP-14 were used in this assay. All enzymes were prepared in Assignee's laboratories following usual laboratory procedures. Protocols for the preparation and use of these enzymes are available in the scientific literature. See, e.g., Enzyme Nomenclature (Academic Press, San Diego, Calif., 1992) (and the citations therein). See also, Frije et al., J. Biol. Chem., 26(24), 16766-73 (1994).
The MMP-2 proenzyme was purified by gelatin Sepharose chromatography from MMP-2-transfected p2AHT2 cells provided by Dr. Gregory Goldberg of Washington University (St. Louis, Mo.).
(§3) All MMPs were activated using 4-aminophenylmercuric acetate (“APMA”, Sigma Chemical, St. Louis, Mo.) or trypsin. MMP-9 also was activated using human recombinant MMP-3 (purified in Assignee's laboratory following standard cloning and purification techniques).
(§4) The following fluorogenic, methoxycoumarin-containing polypeptide substrate (I) was used in the MMP inhibition assays: MCA-ArgProLeuGlyLeuDpaAlaArgGluArgNH2 (I) “MCA” is 7-methoxycoumarin-4-yl acetyl. Substrate (I) was prepared Assignee's laboratory. In the absence of MMP inhibitory activity, the substrate is cleaved at the Gly-Leu peptide bond. This cleavage separates the highly fluorogenic peptide from the 2,4-dinitrophenyl quencher, thus resulting in increase of fluorescent intensity.
(§5) The stock solutions of the assayed compounds and salts were prepared in […] (DMSO). These stock solutions were diluted in Buffer A (100 mM Tris-HCl, 100 mM NaCl, 10 mM CaCl2, 0.05% polyoxyethylene 23 lauryl ether, pH 7.5) to obtain solutions with different compound concentrations, i.e., assay solutions with different concentrations of the assayed […] compound. The experiment controls contained the same amount of Buffer A/DMSO as the assayed sample, but contained none of the tested compound or salt.
(§6) The assays from which the Ki determinations were made were performed as follows. The assayed compound samples were incubated in separate wells of untreated white polystyrene plates (Nunc Nalgene International, Rochester, N.Y.), and analyzed on a Tecan SpectraFlour Plus plate reader. The excitation wavelength was 330 nm, and the emission wavelength—420 nm. All samples (assayed compounds and controls) were incubated in separate plate wells at room temperature for 1 hr in the presence of 4 μM of MMP substrate (I). In the absence of MMP inhibitory activity, substrate (I) was cleaved at the Gly-Leu bond resulting in an increase of relative fluorescence. Inhibition was observed as a reduced rate of this increase in relative fluorescence. […] This protocol is a modification of method by Knight et al., FEBS Lett., 296(3), 263-266 (1992). Apparent inhibitory constants were determined by non-linear regression of reaction velocity as a function of inhibitor and enzyme concentration using Morrison's equation, as described by Kuzmic, Anal. Biochem. 286, 45-50 (2000). Modifications were made in the non-linear regression method to allow a common control reaction rate and effective enzyme concentration to be shared between all dose-response relationships on a given assay plate. Since the substrate concentration was chosen to be at or below the Km, the apparent Ki's from this analysis were reported as Ki's without correction for the influence of substrate.
(§7) The above protocols were used to determine Ki constants for the compounds in Examples 2-35 above. All Ki values in Table 1 are given in nM units.

[2] = target: T2, Human recombinant MMP-1 (Homo sapiens, UniProt P03956); test: as above; type: biochemical
T2 construct: made in house; host or cells: MMP-1-transfected HT-1080 cells (spent media)
T2 sequence (P03956 100-469): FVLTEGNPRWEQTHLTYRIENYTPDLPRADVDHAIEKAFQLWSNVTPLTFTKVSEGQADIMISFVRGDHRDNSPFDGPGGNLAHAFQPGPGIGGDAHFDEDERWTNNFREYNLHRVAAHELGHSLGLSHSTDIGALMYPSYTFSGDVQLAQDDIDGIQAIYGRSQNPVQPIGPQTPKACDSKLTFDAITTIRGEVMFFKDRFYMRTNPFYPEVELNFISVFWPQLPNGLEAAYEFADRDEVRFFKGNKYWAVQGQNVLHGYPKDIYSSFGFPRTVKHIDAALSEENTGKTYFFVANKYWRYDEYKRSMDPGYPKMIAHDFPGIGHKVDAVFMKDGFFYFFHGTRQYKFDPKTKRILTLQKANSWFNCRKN
Protocol: as §1, §2
The MMP-1 proenzyme was purified from the spent media of MMP-1-transfected HT-1080 cells provided by Dr. Harold Welgus of Washington University (St. Louis, Mo.). The protein was purified on a zinc chelating column.
as §3, §4, §5, §6, §7

O=C(NO)C1(S(=O)(=O)c2ccc(-c3ccc(CCC(F)(F)C(F)(F)F)cn3)cc2)CCOCC1 [Example 36]
pKi ([1]; Table 1): 10.15 | pKi ([2]; Table 1): 5.33

CCOCCOc1ccc(-c2ccc(S(=O)(=O)C3(C(=O)NO)CCOCC3)cc2)cc1 [Example 37]
pKi ([1]; Table 1): 10.05 | pKi ([2]; Table 1): 5.84

O=C(NO)C1(S(=O)(=O)c2ccc(-c3ccc(OC(F)(F)C(F)F)cc3)cc2)CCN(CCl)CC1 [Example 38]
pKi ([1]; Table 1): 10.43 | pKi ([2]; Table 1): 6.19

COCCN1CCC(C(=O)NO)(S(=O)(=O)c2ccc(-c3ccc(OC(F)(F)C(F)F)cc3)cc2)CC1 [Example 39]
pKi ([1]; Table 1): 11.05 | pKi ([2]; Table 1): 6.47

O=C(NO)C1(S(=O)(=O)c2ccc(-c3ccc(OC(F)(F)C(F)F)cc3)cc2)CCN(C2CC2)CC1 [Example 40]
pKi ([1]; Table 1): 10.13 | pKi ([2]; Table 1): 6.29

O=C(NO)C1(S(=O)(=O)c2ccc(-c3ccc(CCC(F)(F)C(F)(F)F)cc3)cc2)CCOCC1 [Example 41]
pKi ([1]; Table 1): 9.43 | pKi ([2]; Table 1): 5.29

O=C(NO)C1(S(=O)(=O)c2ccc(-c3ccc(CCCC(F)(F)F)cc3)cc2)CCOCC1 [Example 42]
pKi ([1]; Table 1): 9.47 | pKi ([2]; Table 1): 5.57

COCCN1CCC(C(=O)NO)(S(=O)(=O)c2ccc(-c3ccc(CCCC(F)(F)F)cc3)cc2)CC1 [Example 43]
pKi ([1]; Table 1): 9.54 | pKi ([2]; Table 1): 5.16

O=C(NO)C1(S(=O)(=O)c2ccc(-c3ccc(CCCC(F)(F)F)cc3)cc2)CCN(C2CC2)CC1 [Example 44]
pKi ([1]; Table 1): 9.32 | pKi ([2]; Table 1): 5.06

O=C(NO)C1(S(=O)(=O)c2ccc(-c3ccc(CCC(F)(F)C(F)(F)F)cc3)cc2)CCN(C2CC2)CC1 [Example 45]
pKi ([1]; Table 1): 9.26 | pKi ([2]; Table 1): < 5.00

COCCN1CCC(C(=O)NO)(S(=O)(=O)c2ccc(-c3ccc(CCC(F)(F)C(F)(F)F)cc3)cc2)CC1 [Example 46]
pKi ([1]; Table 1): 9.68 | pKi ([2]; Table 1): < 5.00

COCCC(C(=O)NO)S(=O)(=O)c1ccc(-c2ccc(CCCC(F)(F)F)cc2)cc1 (stereo not shown) [Example 47]
pKi ([1]; Table 1): 8.93 | pKi ([2]; Table 1): < 5.00

CC(C)(C)N1CCC(C(=O)NO)(S(=O)(=O)c2ccc(-c3ccc(CCCC(F)(F)F)cc3)cc2)CC1 [Example 48]
pKi ([1]; Table 1): 8.74 | pKi ([2]; Table 1): < 5.00

O=C(NO)C1(S(=O)(=O)c2ccc(-c3cnc(CCC4CC4)cn3)cc2)CCOCC1 [Example 49]
pKi ([1]; Table 1): 8.63 | pKi ([2]; Table 1): < 5.00

O=C(NO)C1(S(=O)(=O)c2ccc(-c3ccc(CCC(F)(F)C(F)(F)F)cn3)cc2)CCN(C2CC2)CC1 [Example 50]
pKi ([1]; Table 1): 9.72 | pKi ([2]; Table 1): 5.10

O=C(NO)C1(S(=O)(=O)c2ccc(-c3ccc(CCCC(F)(F)F)cn3)cc2)CCN(C2CC2)CC1 [Example 51]
pKi ([1]; Table 1): 9.80 | pKi ([2]; Table 1): 5.02

CCN1CCC(C(=O)NO)(S(=O)(=O)c2ccc(-c3ccc(CCC(F)(F)C(F)(F)F)cn3)cc2)CC1 [Example 52]
pKi ([1]; Table 1): 9.68 | pKi ([2]; Table 1): < 5.00

CCN1CCC(C(=O)NO)(S(=O)(=O)c2ccc(-c3ccc(CCCC(F)(F)F)cn3)cc2)CC1 [Example 53]
pKi ([1]; Table 1): 9.34 | pKi ([2]; Table 1): < 5.00

COCCN1CCC(C(=O)NO)(S(=O)(=O)c2ccc(-c3ccc(CCCC(F)(F)F)cn3)cc2)CC1 [Example 54]
pKi ([1]; Table 1): 9.92 | pKi ([2]; Table 1): 5.20

O=C(NO)C1(S(=O)(=O)c2ccc(-c3cnc(CCC(F)(F)C(F)(F)F)cn3)cc2)CCOCC1 [Example 55]
pKi ([1]; Table 1): 9.23 | pKi ([2]; Table 1): < 5.00

O=C(NO)C1(S(=O)(=O)c2ccc(-c3ccc(CCCC(F)F)cc3)cc2)CCOCC1 [Example 57]
pKi ([1]; Table 1): 9.82 | pKi ([2]; Table 1): 5.67

O=C(NO)C1(S(=O)(=O)c2ccc(-c3cnc(CCCC(F)(F)F)cn3)cc2)CCOCC1 [Example 58]
pKi ([1]; Table 1): 8.69 | pKi ([2]; Table 1): < 5.00

CC(F)(F)CCc1ccc(-c2ccc(S(=O)(=O)C3(C(=O)NO)CCN(C4CC4)CC3)cc2)cc1 [Example 59]
pKi ([1]; Table 1): 9.96 | pKi ([2]; Table 1): 5.66

CC(F)(F)CCc1cnc(-c2ccc(S(=O)(=O)C3(C(=O)NO)CCOCC3)cc2)cn1 [Example 60]
pKi ([1]; Table 1): 9.33 | pKi ([2]; Table 1): < 5.00

CCN1CCC(C(=O)NO)(S(=O)(=O)c2ccc(-c3ccc(CCC(C)(F)F)cc3)cc2)CC1 [Example 61]
pKi ([1]; Table 1): 9.96 | pKi ([2]; Table 1): 5.52

O=C(NO)C1(S(=O)(=O)c2ccc(-c3cnc(CCC(F)(F)F)cn3)cc2)CCOCC1 [Example 62]
pKi ([1]; Table 1): 9.06 | pKi ([2]; Table 1): < 5.00

COCCN1CCC(C(=O)NO)(S(=O)(=O)c2ccc(-c3ccc(CCC(C)(F)F)cc3)cc2)CC1 [Example 63]
pKi ([1]; Table 1): 10.40 | pKi ([2]; Table 1): 5.76

CCN1CCC(C(=O)NO)(S(=O)(=O)c2ccc(-c3cnc(CCC(C)(F)F)cn3)cc2)CC1 [Example 64]
pKi ([1]; Table 1): 8.78 | pKi ([2]; Table 1): < 5.00

COCCN1CCC(C(=O)NO)(S(=O)(=O)c2ccc(-c3cnc(CCC(C)(F)F)cn3)cc2)CC1 [Example 65]
pKi ([1]; Table 1): 9.02 | pKi ([2]; Table 1): < 5.00

CC(F)(F)CCc1cnc(-c2ccc(S(=O)(=O)C3(C(=O)NO)CCN(C4CC4)CC3)cc2)cn1 [Example 66]
pKi ([1]; Table 1): 9.10 | pKi ([2]; Table 1): < 5.00

COCCN1CCC(C(=O)NO)(S(=O)(=O)c2ccc(-c3ccc(CCC(C)(F)F)cn3)cc2)CC1 [Example 67]
pKi ([1]; Table 1): 9.85 | pKi ([2]; Table 1): 5.07

O=C(NO)C1(S(=O)(=O)c2ccc(-c3ccc(OC(F)(F)C(F)F)cc3)cc2)CCOCC1 [Example 68]
pKi ([1]; Table 1): 10.21 | pKi ([2]; Table 1): 6.64

O=C(NO)C1(S(=O)(=O)c2ccc(-c3ccc(CCCC(F)(F)F)cn3)cc2)CCOCC1 [Example 69]
pKi ([1]; Table 1): 9.49 | pKi ([2]; Table 1): 5.45

CCCCOc1cnc(-c2ccc(S(=O)(=O)C3(C(=O)NO)CCOCC3)cc2)cn1 [Example 73]
pKi ([1]; Table 2): 10.08 | pKi ([2]; Table 2): 5.76

O=C(NO)C1(S(=O)(=O)c2ccc(-c3ccc(OCCCC(F)(F)F)cc3)cc2)CCOCC1 [Example 74]
pKi ([1]; Table 2): 9.52 | pKi ([2]; Table 2): 5.79

CCCCCc1ccc(-c2ccc(S(=O)(=O)C3(C(=O)NO)CCOCC3)cc2)cc1 [Example 75]
pKi ([1]; Table 2): 9.17 | pKi ([2]; Table 2): 5.40

CC(=O)Nc1cnc(-c2ccc(S(=O)(=O)C3(C(=O)NO)CCOCC3)cc2)cn1 [Example 76]
pKi ([1]; Table 2): 7.99 | pKi ([2]; Table 2): 5.02

CCN1CCC(C(=O)NO)(S(=O)(=O)c2ccc(-c3ccc(OCCCCO)cc3)cc2)CC1 [Example 118]
pKi ([1]; Table 2): 9.84 | pKi ([2]; Table 2): 5.66
